Data as given in ChEMBL document CHEMBL1141267, “Side-chain truncation of apicularen A by olefin cross-metathesis with ethylene” (J Nat Prod, 2007).
Calls of active or inactive are those of the source. The rule behind the calls is not given here.

What was measured:
L929 = assay: Cytotoxicity against mouse L929 cells; format: functional, cell-based
[1] = Inhibition of tobacco hornworm V-ATPase; parameters: species or system Manduca sexta

SMILES: C=CC[C@H]1C[C@H]2C[C@H](O)C[C@H](Cc3cccc(O)c3C(=O)O1)O2
- Activity (L929): inactive

SMILES: CC/C=C\C=C/C(=O)N/C=C/C[C@H]1C[C@H]2C[C@H](O)C[C@H](Cc3cccc(O)c3C(=O)O1)O2 [APICULAREN A]
- IC50 [1]: 0.02 µM
